Data as given in patent US9163032B2, “Esters of DCPLA and methods of treatment using the same” (Blanchette Rockefeller Neurosciences Institute, priority 2011, dated 2015).
“Also recorded” adds a separate entry of the source.

Tests used:
[1] = tested on: Phosphatidylserine (C2) Binding Site; assay: 3H-DCPLA-ME binding to rat brain slices with C1 and C2 competitors (film-autoradiography)
Protocol: To determine the binding site of DCPLA-ME, ^3H-DCPLA-ME was incubated with rat brain slices in the absence and presence of known C1 and C2 competitors. More specifically, rat brain sections were fixed with formaldehyde, sliced, and incubated with (1)^3H-DCPLA-ME alone; (2)^3H-DCPLA-ME with DCPLA; (3)^3H-DCPLA-ME with Phorbol ester; or (4)^3H-DCPLA-ME and Bryostatin 1. After incubation, the slices were washed with a buffer made of 130 mM NaCl, 5 mM MgCl, 5 mM KCl, 1 mM EGTA, and 0.1% bovine serum albumin in 10 mM HEPES-NaOH, pH 7.4, dried, and analyzed with film-autoradiography.

PSD-95 = PSD-95 expression in primary hippocampal neurons (immunofluorescence); format: cell-based, rat; conditions: 20 hr
Protocol: Cells were grown in two chambered slides (Nunc, USA) at low density. For immunofluorescence staining, the cells were washed with PBS (pH 7.4) and fixed with 4% paraformaldehyde for 4 min. Following fixation, the cells were blocked and permeabilized with 5% serum and 0.3% Triton X-100 in 1×PBS for 30 min. Cells were washed three times with 1×PBS and incubated with primary antibodies for 1 hr at 1:100 dilution. After the incubation, the slides were again washed three times in 1×PBS and were incubated with the FITC anti-mouse IgG and Rhodamine anti-rabbit IgG for 1 hr at 1:400 dilution. The cells were further washed and stained with DAPI (4′,6-diamidino-2′-phenylindole, dihydrochloride) (Thermo Scientific, USA) to stain the nucleus. Finally, the slides were washed and mounted in Pro Long Gold antifade mounting solution (Invitrogen, USA) and were viewed under a LSM 710 Meta confocal microscope (Zeiss) at 350 nm, 490 nm, and 540 nm excitation and 470 nm, 525 nm, and 625 nm emission for DAPI, FITC, and Rhodamine respectively. Six individual fields at 63× oil lens magnification were analyzed for the mean fluorescence intensity (MFI) in each channel.
To estimate the synaptic damage caused by the ASPDs on primary hippocampal neurons, the expression of synaptophysin (a presynaptic marker) and PSD-95 (a postsynaptic marker) was measured by immunofluorescence staining. […] Following a 20 hr incubation period, the cells were stained for nucleus, PSD-95, and synaptophysin. Expression levels were calculated as the change of percentage in mean fluorescence intensity compared to untreated cells.
Primary neurons, treated and untreated, were immunostained for MAP-2, synaptophysin, and PSD-95 to determine the synaptic integrity. […] Following a 20 hr incubation period, the cells were stained for MAP-2, PSD-95, and synaptophysin as described above.

PKC-δ = PKC-δ (Homo sapiens, UniProt Q05655); assay: PKC activation assay with purified PKC-δ isozyme; format: biochemical
Protocol: For measurement of PKC activation by DCPLA-ME, activation of recombinant PKC-α, PKC-ε, and PKC-δ was evaluated. DCPLA-ME induced activation was measured in the absence of diacylglycerol (DAG) and phosphatidylserine (PS) as described earlier. See Nelson, T. J. et al., J. Biol. Chem., 2009, 284: 34514-34521, and Kanno, T. et al., J. Cell Physiol., 2009, 221: 183-188. Individual enzymes were incubated for 15 min at 37° C. in the presence of 10 μM histones, 4.89 mM CaCl2, 10 mM MgCl2, 20 mM HEPES (pH 7.4), 0.8 mM EDTA, 4 mM EGTA, 4% glycerol, 8 μg/ml aprotinin, 8 μg/ml leupeptin, 2 mM benzamidine, and 0.5 μCi of [γ-^32P]ATP. Purified PKC-α, PKC-ε and PKC-δ were preincubated with DCPLA-ME for 5 min at room temperature. [^32P]-Phosphoprotein formation was measured by adsorption onto phosphocellulose.
To measure PKC, 10 μl of cell homogenate or purified PKC isozyme was incubated for 15 min at 37° C. in the presence of 10 μM histones, 4.89 mM CaCl2, 1.2 μg/μl phosphatidyl-L-serine, 0.18 μg/μl 1,2-dioctanoyl-sn-glycerol, 10 mM MgCl2, 20 mM HEPES (pH 7.4), 0.8 mM EDTA, 4 mM EGTA, 4% glycerol, 8 μg/ml aprotinin, 8 μg/ml leupeptin, and 2 mM benzamidine. [γ32P]ATP (0.5 μCi) was added and 32P-phosphoprotein formation was measured by adsorption onto phosphocellulose as described previously. See Nelson et al., J. Neurochemistry, 1995, 65: 2350-2357. […]

PKC-ε mRNA = PKC-ε mRNA by RT-PCR in primary neurons; format: cell-based, rat; conditions: primary neurons treated with ASPD and/or DCPLA-ME, normalized to β-actin
Protocol: RNA was isolated from the cells using Trizol reagent (Invitrogen, USA) following the manufacturer's protocol. Briefly, 5 μg of the total RNA was reverse transcribed using oligo (dT) and Superscript III (Invitrogen, USA) at 50° C. for 1 hr. Two μl of the cDNA product was amplified using primers for PKC-ε (Forward Primer—[…], Reverse primer—[…] (Origene, Rockville, Md.)) and β-actin (Promega, USA) for 30 cycles following standard PCR protocols using a 55° C. annealing temperature. The PCR amplicons were analyzed in an E-Gel (Invitrogen, USA). The gel was imaged using a Fuji Image gel scanner (FLA-9000, Fuji Film) and densitometric quantification was performed using IMAL software (Blanchette Rockefeller Neurosciences Institute, Morgantown, W. Va.). Data were represented as normalized ratio of PKC-ε OD (Optical Density) against β-actin OD for three independent experiments.
Primary neurons were treated with ASPD and/or DCPLA-ME. PKC-ε mRNA was quantified by RT-PCR as described above. RNA prepared from control and treated cultured primary rat hippocampal neurons were isolated and reverse transcribed. Individual cDNA was amplified for PKC-ε and β-actin. PKC-ε expression was normalized to β-actin.

Sequence of PKC-δ (Q05655 whole entry): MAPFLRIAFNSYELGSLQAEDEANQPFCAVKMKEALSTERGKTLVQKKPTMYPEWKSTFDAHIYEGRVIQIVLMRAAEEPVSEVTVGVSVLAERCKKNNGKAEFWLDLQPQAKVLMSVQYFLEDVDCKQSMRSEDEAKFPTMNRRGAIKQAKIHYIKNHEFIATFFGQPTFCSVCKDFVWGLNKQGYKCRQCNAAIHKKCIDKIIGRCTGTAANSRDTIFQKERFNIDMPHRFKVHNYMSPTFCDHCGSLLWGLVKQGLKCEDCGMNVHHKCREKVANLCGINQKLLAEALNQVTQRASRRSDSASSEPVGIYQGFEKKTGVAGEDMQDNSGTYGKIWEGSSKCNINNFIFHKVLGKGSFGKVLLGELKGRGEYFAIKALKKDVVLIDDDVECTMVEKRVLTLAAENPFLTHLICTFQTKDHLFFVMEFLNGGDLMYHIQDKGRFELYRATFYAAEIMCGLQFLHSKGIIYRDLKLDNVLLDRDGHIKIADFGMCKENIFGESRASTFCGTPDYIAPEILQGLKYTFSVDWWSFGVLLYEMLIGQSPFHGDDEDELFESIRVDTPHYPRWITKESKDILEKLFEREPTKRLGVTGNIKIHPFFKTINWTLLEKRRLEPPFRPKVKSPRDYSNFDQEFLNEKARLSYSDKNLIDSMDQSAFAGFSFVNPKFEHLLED

| binding site [1] | 3H-DCPLA-ME binding, 30 nM competitor ([1]; 30 nM competitor, rat brain slices) [%] | 3H-DCPLA-ME binding, 1 μM competitor ([1]; 1 μM competitor, rat brain slices) [%] | Molecule | PSD-95 mean fluorescence intensity (PSD-95; 50 nM ASPD + 100 nM DCPLA-ME) | effect on PKC-δ (PKC-δ) | PKC-ε transcript levels (PKC-ε mRNA) | PSD-95 mean fluorescence intensity (PSD-95; 50 nM ASPD) | decrease of PSD-95 expression (PSD-95; 50 nM ASPD) [%] |
| --- | --- | --- | --- | --- | --- | --- | --- | --- |
| phosphatidylserine (C2) site | 64 | 37 | CCCCCC1CC1CC1CC1CCCCCCCC(=O)OC (stereo not drawn) [DCPLA-ME, DCPLA methyl ester] | 99.2±11.3 % of control | did not have a major effect; also recorded: less inhibitory effect | increased PKC-ε transcript levels | – | – |
| – | – | – | ASPD: Amylospheroids from Aβ1-42, 100 kDa filter retentate, containing 39 monomers on average | – | – | did not change PKC-ε mRNA significantly | 67.63±7.24 % of control | 42 |
